This note sets out measurements from patent US20040072824A1, “Methods and compositions for the treatment of cancer” (priority 2001, published 2004).

For data set [1], the system named is U937 cells. Kind of data set: Antineoplastic activity, U937 cells injected in scid/scid mice, treatment from day 1. It is filed as in vivo. As to conditions: 100 mg/kg; six mice. The procedure:
Ten million U937 cells were subcutaneously injected into scid/scid mice. One injection was carried out per each of the 6 mice tested per set. The excipient or the compounds tested were administered intraperitoneally on day 1, i.e., the day of U937 cell line inoculation, of the experiment. The excipients or compounds were administered once daily. The tumor sizes were measured on day 5, day 8, day 12, day 14 and day 19 after the injection.

The test system of data set [2] is blastic cells from AML patients. The data set is described as follows: Inhibition of viability of fresh leukemic cells (trypan blue exclusion). It is filed as cell-based, human. To be noted: Homo sapiens, day 3; for cytotoxicity at 10 µM: 10^-5 M; for cytotoxicity at 1 µM: 10^-6 M. As to the method: Samples for AML 1 through 5, AML 1 being the least and AML 5 being the most differentiated, were obtained. […] Cells were incubated with or without […] anti-histamine derivatives. Polaramine was included as a negative control. Cell counts were assessed by trypan blue exclusion test at day 3 after the incubation. Morphological analysis was performed using Wright-Giemsa staining on cytocentrifuge preparations. The results were expressed as % inhibition of growth as compared to negative control.

The test system of data set [3] is U937 cells. The data set is described as follows: Curative effects on palpable tumors, U937 cells in scid/scid mice. The format is in vivo. As to conditions: daily administration once tumors palpable (4 mm^3). The procedure: In this series of experiments, effects of various compounds of the present invention on tumor development were tested using two protocols. The first protocol is directed to the testing of curative effects of these compounds in different cell lines. In this protocol, cancerous cells are inoculated to the animals, and the inoculated animals were left without any further treatment until the development of tumors. As soon as the tumors became palable (4 mm^3), the compounds of this invention were administered daily to the animals. Two different cell lines, i.e., U937 and MDA-MB-231 (breast cancer line), were used for this protocol to inoculate scid/scid mice.

The test system of another data set is U937. The format is in vivo. As to conditions: treatment from day 1, cells inoculated after more than 24 hours, daily administration. The procedure:
The second protocol was designed to test the preventive effects of the compounds of this invention on tumorigenesis. In this protocol, the animals have been treated with various compounds of the present invention on day 1. After more than 24 hours, tumoral cells were inoculated. The administration of the compounds of this invention was maintained daily. The cell line used for this test was U937.

Data set [4] deals with K562, U937, MDA-DB231, BT20 and MCF7 cell lines. Kind of data set: Cytotoxic effects in multi-well plate, 6 days, ATP level (CellTiter-Glo). To be noted: 2x10^-9 M to 2x10^-4 M. The procedure:
In order to test the cytotoxic effects of various compounds, a test was developed in a multi-well plate. Two leukemic cell lines, namely K562 and U937, and three breast cancer cell lines, namely MDA-DB231, BT20 and MCF7 were used for this test.
The cells were seeded at low density and were left for 24 hours to recover and reach a new logarithmic phase of growth. Various concentrations of the compounds being tested, ranging from 2×10^−9 M to 2×10^−4 M, were added in triplicate. The mixture was incubated for 6 days, during which approximately 4 doublings of the cell population occurred, to allow the cells to reach subconfluence.
The viability of the cultured cells after the treatment by the compounds was determined by quantifying the level of ATP since the level of ATP is directly proportional to the number of viable cells present in the culture. The ATP level was quantified by using CellTiter-Glo™ (Promega) luminescent test for cell viability.
A general note: Cellular ATP, detected with luciferase, serves as a proxy for viable cell number.

The subject of data set [5] is K562, U937, Jurkat, T47-D, MCF7, BT20 and 184B5 cell lines. Kind of data set: Cytotoxicity in malignant and immortalized cell lines (manual counting, Alamar assay). To be noted: all of the cell lines tested. The format is cell-based. The procedure: These four compounds were added at different concentrations to cultures of various malignant cell lines and normal cells. The cell lines used for these tests were the following:
All leukemic cell lines were grown and used in logarithmic phase. After one day of treatment, the cells were isolated, counted and diluted in a regular growth medium to provide the cell density of about 75×10^3 cells/ml for reading on plates at 48 hours after the treatment, and […] for reading at 144 hours after the treatment.
Several dilutions of each compound tested were added to the wells (12 wells per plate, TPP), and 1 ml of cells from the parent solution was added per well after a line had been completed. The dilutions were made using the culture medium, and following dilutions were tested: control, which contained no compound of this invention; 1:100; 1:1,000; 1:2,000; 1:5,000; and 1:10,000. The starting concentrations for these dilutions were: 50 mg/ml for compound A; 10 mg/ml for compound B; 25 mg/ml for compound C; and 5 mg/ml for compound D. The results were analyzed by manual counting and Alamar reduced assay.
The cells were grown on their respective propagation medium and seeded 24 hours before the compounds are added. The cells were trypsinized, and 50,000 cells/well and 10,000 cells/well were seeded in order to read the plates at 48 hours and 144 hours after being treated by the compounds, respectively.
On the day of the treatment, the medium was replaced by 10 ml each of series dilution of the compounds, consisting of: control, which contained no compound of this invention; 1:100 dilution; 1:1,000 dilution; 1:2,000 dilution; and 1:5,000 dilution. The starting concentrations for these dilutions were: 50 mg/ml for compound A; 10 mg/ml for compound B; 25 mg/ml for compound C; and 5 mg/ml for compound D. The dilution was made using the growth medium.
A tested compound is regarded as being active in cytotoxicity where the percentage of surviving cells after the treatment with the compound is less than 30%.

Another data set relates to TCTP. Kind of data set: TCTP expression in treated U937 cells (western blot). The format is cell-based. To be noted: 24 hours, various dilutions. The procedure: U937 cells were treated with various dilutions of hydroxyzine, brompheniramine and promethazine for 24 hours as denoted in FIG. 23A. Starting concentrations were: 50 mg/ml for […] (“A”); 10 mg/ml for brompheniramine (“B”); and 25 mg/ml for promethazine (“C”). The proteins were isolated from these cells and loaded onto a gel for western blot analysis. A specific anti-TCTP (anti-HRF) antibody was used to visualize the location of TCTP. […] The level of actin in equal loading of extract was visualized by antiactin antibody (Santa Cruz Biotechnology). No substantial difference between the level of actin in treated and untreated cells was observed.

The test system of data set [6] is Poly ADP-Ribose Polymerase (PARP). The data set is described as follows: PARP cleavage in treated U937 cells (western blot). It is filed as cell-based. As to conditions: 24 hours. As to the method: U937 cells were treated with various concentrations of hydroxyzine and promethazine for 24 hours. The proteins were isolated from these cells and loaded onto a gel for a western blot analysis. A specific anti-PARP antibody was used to visualize the location of PARP.
(In general: In western blotting, separated proteins are transferred to a membrane and probed.)

The mark [7] stands for this setting: 72 h, MEAN over AML patients, read-out: In Vitro Percent Inhibition of Viability, MEAN.
Setting [8] is: 72 h, patient ID 3, FAB AML2, read-out: In Vitro Percent Inhibition of Viability.
The mark [9] stands for this setting: 72 h, patient ID 4, FAB AML2, read-out: In Vitro Percent Inhibition of Viability.
Where [10] appears, read: 72 h, patient ID 5, FAB AML2, read-out: In Vitro Percent Inhibition of Viability.
The mark [11] stands for this setting: 72 h, patient ID 10, FAB AML4, read-out: In Vitro Percent Inhibition of Viability.
Setting [12] is: 72 h, patient ID 11, FAB AML5, read-out: In Vitro Percent Inhibition of Viability.
Setting [13] is: 72 h, patient ID 13, FAB AML5, read-out: In Vitro Percent Inhibition of Viability.
[14] abbreviates: 72 h, patient ID 14, FAB AML5, read-out: In Vitro Percent Inhibition of Viability.
Where [15] appears, read: 72 h, patient ID 15, FAB AML5, read-out: In Vitro Percent Inhibition of Viability.
Where [16] appears, read: AML1, 72 h, patient ID 1, FAB AML1, read-out: In Vitro Percent Inhibition of Viability.
The mark [17] stands for this setting: AML1, 72 h, patient ID 2, FAB AML1, read-out: In Vitro Percent Inhibition of Viability.
Setting [18] is: AML3, 72 h, patient ID 6, FAB AML3, read-out: In Vitro Percent Inhibition of Viability.
The mark [19] stands for this setting: AML3, 72 h, patient ID 7, FAB AML3, read-out: In Vitro Percent Inhibition of Viability.
Setting [20] is: AML3, 72 h, patient ID 8, FAB AML3, read-out: In Vitro Percent Inhibition of Viability.
The mark [21] stands for this setting: AML3, 72 h, patient ID 9, FAB AML3, read-out: In Vitro Percent Inhibition of Viability.

Each structure is given as a SMILES string. Structures can show the parent of a compound that is named as a salt. Where two headings read alike, the source gives them in different places.

Consider `CC1=C(/C=C/C(C)=C/C=C/C(C)=C/C(=O)O)C(C)(C)CCC1` [ATRA, All Trans Retinoic Acid], for which the “mice that developed a tumor” value in the data set with U937 cells [1] is on record as “all six”.
In the case of `CN(C)CCCN1c2ccccc2Sc2ccc(Cl)cc21` [S59, chlorpromazine], the cytotoxicity at 10 µM stood at 37% in data set [2] (setting [7]); 48% in data set [2] (setting [8]); 22% in data set [2] (setting [9]); 37% in data set [2] (setting [10]); 51% in data set [2] (setting [11]); 25% in data set [2] (setting [12]). In addition, the cytotoxicity at 10 µM in data set [2] (72 h, patient ID 12, FAB AML5, read-out: In Vitro Percent Inhibition of Viability) was found to be 51%; in data set [2] (setting [13]), 31%; in data set [2] (setting [14]), 40%; in data set [2] (setting [15]), 20%; in data set [2] (setting [16]) it was 8%; in data set [2] (setting [17]) it was 35%. Besides, the cytotoxicity at 10 µM came to 24% in data set [2] (setting [18]), 53% in data set [2] (setting [19]), 44% in data set [2] (setting [20]) and 71% in data set [2] (setting [21]). In addition, the cytotoxicity at 1 µM in data set [2] (setting [7]) was found to be 15%; in data set [2] (setting [8]), 7%; in data set [2] (setting [9]), 9%; in data set [2] (setting [10]), 0%; in data set [2] (setting [11]), 33%; in data set [2] (setting [12]) it was 32%. Also, the cytotoxicity at 1 µM in data set [2] (setting [13]) worked out at 13%; in data set [2] (setting [14]), 38%; in data set [2] (setting [15]) it was 17%; in data set [2] (setting [16]), 8%; in data set [2] (setting [17]) it was 5%; in data set [2] (setting [18]), 13%. Besides, the results for the cytotoxicity at 1 µM in data set [2] (setting [19]), in data set [2] (setting [20]) and in data set [2] (setting [21]) were 3%, 14% and 11%, respectively. The tumor growth entry in the data set with U937 cells [3] is listed as “delay in the tumor growth”. The “tumor growth compared to the negative control” value in the data set with U937 is “decrease in tumor growth”. Besides, in data set [4], the cytotoxic effect group result is “I”.
`CN(C)CCC(c1ccc(Br)cc1)c1ccccn1` (centres unmarked) [brompheniramine, brompheniramine maleate]: the cytotoxic activity result in data set [5] is “little or no cytotoxic activity”. In addition, in the data set with TCTP, the “expression of TCTP” value is “little effect”.
With `CN[C@@H]1C[C@H]2O[C@@](C)([C@@H]1OC)n1c3ccccc3c3c4c(c5c6ccccc6n2c5c31)C(=O)NC4` [staurosporine], the “PARP cleavage (induction of apoptosis)” value in data set [6] is given as “cleave PARP”.
